Measurements as given in patent US11566007B2, “Ras inhibitors” (Revolution Medicines, Inc., priority 2019, dated 2023).
Where two headings read alike, the source gives them in different places.

How the values were obtained:
K-Ras G12C = K-Ras G12C (Homo sapiens (Human), UniProt P01116+P62937, G12C); assay: Ras-Raf (BRAF RBD) disruption / FRET / MOA assay, KRAS G12C; format: biochemical
Outline: (§1)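 TR-FRET read-out: a drop in ratio relative to DMSO wells marks disruption of the Ras:RAF complex, reported as IC50. Compounds (3-fold series, 10 points, top 30 μM final) incubated 3 h at 25° C before Eu-anti-His 10 nM and APC-anti-GST 50 nM, 1.5 h more.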

NRAS Q61R = NRAS Q61R (Homo sapiens (Human), UniProt P01111+P62937, Q61R); assay: Ras-Raf (BRAF RBD) disruption / FRET / MOA assay, NRAS Q61R; format: biochemical; settings: NRAS Q61R; Ras-Raf disruption/FRET/MOA assay; read-out: IC50* NRAS Q61R FRET data
Sequence of NRAS Q61R (P01111 whole entry Q61R): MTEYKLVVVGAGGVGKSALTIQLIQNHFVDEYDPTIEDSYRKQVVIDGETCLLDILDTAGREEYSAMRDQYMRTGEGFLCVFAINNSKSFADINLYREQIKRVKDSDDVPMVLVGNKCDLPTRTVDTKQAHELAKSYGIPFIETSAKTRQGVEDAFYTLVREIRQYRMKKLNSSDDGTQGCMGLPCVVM
Sequence of NRAS Q61R (P62937 whole entry): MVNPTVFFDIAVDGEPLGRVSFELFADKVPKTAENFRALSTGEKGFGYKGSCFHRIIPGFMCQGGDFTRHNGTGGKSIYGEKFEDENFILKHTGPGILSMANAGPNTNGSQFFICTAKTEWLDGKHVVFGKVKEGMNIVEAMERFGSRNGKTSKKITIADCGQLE
Outline: (§2)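 Compounds were tested as a 10-point 3-fold dilution series from 30 μM final for their ability to drive ternary complex formation between nucleotide-loaded Ras and cyclophilin A, displacing the BRAF RBD. After 3 h at 25° C., anti-His Eu-W1024 (10 nM) and anti-GST allophycocyanin (50 nM) were added for 1.5 h. A TR-FRET ratio decrease versus DMSO gave IC50.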

NRAS WT = NRAS WT (Homo sapiens (Human), UniProt P01111+P62937); assay: Ras-Raf (BRAF RBD) disruption / FRET / MOA assay, NRAS WT; format: biochemical; settings: read-out: IC50* NRAS WT FRET data
Sequence of NRAS WT (P01111 whole entry): as the sequence (P01111 whole entry Q61R) above, with R61Q counted along it
Sequence of NRAS WT (P62937 whole entry): as the sequence (P62937 whole entry) above
Outline: as §2

NCI-H358 (K-Ras G12C) = assay: CellTiter-Glo cell viability assay, NCI-H358; format: cell-based, human; settings: Homo sapiens, NCI-H358, 120 h
Outline: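 Compounds dispensed directly onto seeded K-Ras mutant cells; plates read on day 5 after ~30 min equilibration to room temperature, by CellTiter-Glo luminescence. Signal normalized as (sample/mean DMSO)×100, then fitted to a four-parameter logistic curve.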

KRAS WT = KRAS WT (Homo sapiens (Human), UniProt P01116+P62937); assay: Ras-Raf (BRAF RBD) disruption / FRET / MOA assay, KRAS WT; format: biochemical; settings: read-out: IC50* KRAS WT FRET data
Sequence of KRAS WT (P01116-2 other isoform, or with tags, fused parts or gaps): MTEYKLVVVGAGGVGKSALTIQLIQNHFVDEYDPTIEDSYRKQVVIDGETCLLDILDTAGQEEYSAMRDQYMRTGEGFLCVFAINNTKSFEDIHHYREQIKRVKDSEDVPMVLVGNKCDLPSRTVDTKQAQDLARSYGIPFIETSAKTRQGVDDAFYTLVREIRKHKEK
Sequence of KRAS WT (P62937 whole entry): as the sequence (P62937 whole entry) above
Outline: as §1

KRAS Q61H = KRAS Q61H (Homo sapiens (Human), UniProt P01116+P62937, Q61H); assay: Ras-Raf (BRAF RBD) disruption / FRET / MOA assay, KRAS Q61H; format: biochemical; settings: Ras-Raf disruption/FRET/MOA assay; class symbols; read-out: KRAS Q61H FRET data IC50
Sequence of KRAS Q61H (P01116-2 other isoform, or with tags, fused parts or gaps Q61H): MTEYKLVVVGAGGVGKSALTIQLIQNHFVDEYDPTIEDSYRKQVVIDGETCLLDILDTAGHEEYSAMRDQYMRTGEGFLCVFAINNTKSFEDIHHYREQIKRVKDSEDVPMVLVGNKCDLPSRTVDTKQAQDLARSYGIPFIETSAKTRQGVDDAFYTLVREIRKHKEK
Sequence of KRAS Q61H (P62937 whole entry): as the sequence (P62937 whole entry) above
Outline: as §2

KRAS G12S = KRAS G12S (Homo sapiens (Human), UniProt P01116+P62937, G12S); assay: Ras-Raf (BRAF RBD) disruption / FRET / MOA assay, KRAS G12S; format: biochemical; settings: Ras-Raf disruption/FRET/MOA assay; class symbols; read-out: KRAS G12S FRET data IC50
Sequence of KRAS G12S (P01116-2 other isoform, or with tags, fused parts or gaps G12S): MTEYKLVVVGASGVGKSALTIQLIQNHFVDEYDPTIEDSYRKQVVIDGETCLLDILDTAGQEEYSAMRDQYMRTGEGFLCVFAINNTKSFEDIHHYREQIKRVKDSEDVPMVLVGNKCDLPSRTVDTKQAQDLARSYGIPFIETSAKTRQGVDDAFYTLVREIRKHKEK
Sequence of KRAS G12S (P62937 whole entry): as the sequence (P62937 whole entry) above
Outline: as §1

NRAS G12C = NRAS G12C (Homo sapiens (Human), UniProt P01111+P62937, G12C); assay: Ras-Raf (BRAF RBD) disruption / FRET / MOA assay, NRAS G12C; format: biochemical; settings: read-out: IC50* NRAS G12C FRET data
Sequence of NRAS G12C (P01111 whole entry G12C): as the sequence (P01111 whole entry Q61R) above, with G12C, R61Q counted along it
Sequence of NRAS G12C (P62937 whole entry): as the sequence (P62937 whole entry) above
Outline: as §1

KRAS G12D = KRAS G12D (Homo sapiens (Human), UniProt P01116+P62937, G12D); assay: Ras-Raf (BRAF RBD) disruption / FRET / MOA assay, KRAS G12D; format: biochemical; settings: Ras-Raf disruption/FRET/MOA assay; class symbols; read-out: KRAS G12D FRET data IC50
Sequence of KRAS G12D (P01116-2 other isoform, or with tags, fused parts or gaps G12D): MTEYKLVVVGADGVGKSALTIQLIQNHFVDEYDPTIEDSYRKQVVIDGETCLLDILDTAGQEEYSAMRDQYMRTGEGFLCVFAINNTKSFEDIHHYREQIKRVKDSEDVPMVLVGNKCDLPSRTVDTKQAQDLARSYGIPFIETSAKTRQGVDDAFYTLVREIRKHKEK
Sequence of KRAS G12D (P62937 whole entry): as the sequence (P62937 whole entry) above
Outline: as §1

K-Ras G13C = K-Ras G13C (Homo sapiens (Human), UniProt P01116+P62937, G13C); assay: Ras-Raf (BRAF RBD) disruption / FRET / MOA assay, KRAS G13C; format: biochemical
Sequence of K-Ras G13C (P01116-2 other isoform, or with tags, fused parts or gaps G13C): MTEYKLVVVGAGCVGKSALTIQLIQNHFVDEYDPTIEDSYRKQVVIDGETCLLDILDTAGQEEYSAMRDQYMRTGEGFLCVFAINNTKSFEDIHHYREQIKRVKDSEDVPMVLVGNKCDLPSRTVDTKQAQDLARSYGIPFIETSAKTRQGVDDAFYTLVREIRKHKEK
Sequence of K-Ras G13C (P62937 whole entry): as the sequence (P62937 whole entry) above
Outline: as §1

NRAS Q61K = NRAS Q61K (Homo sapiens (Human), UniProt P01111+P62937, Q61K); assay: Ras-Raf (BRAF RBD) disruption / FRET / MOA assay, NRAS Q61K; format: biochemical; settings: NRAS Q61K; Ras-Raf disruption/FRET/MOA assay; read-out: IC50* NRAS Q61K FRET data
Sequence of NRAS Q61K (P01111 whole entry Q61K): as the sequence (P01111 whole entry Q61R) above, with R61K counted along it
Sequence of NRAS Q61K (P62937 whole entry): as the sequence (P62937 whole entry) above
Outline: as §2

KRAS G13D = KRAS G13D (Homo sapiens (Human), UniProt P01116+P62937, G13D); assay: Ras-Raf (BRAF RBD) disruption / FRET / MOA assay, KRAS G13D; format: biochemical; settings: read-out: IC50* KRAS G13D FRET data
Sequence of KRAS G13D (P01116-2 other isoform, or with tags, fused parts or gaps G13D): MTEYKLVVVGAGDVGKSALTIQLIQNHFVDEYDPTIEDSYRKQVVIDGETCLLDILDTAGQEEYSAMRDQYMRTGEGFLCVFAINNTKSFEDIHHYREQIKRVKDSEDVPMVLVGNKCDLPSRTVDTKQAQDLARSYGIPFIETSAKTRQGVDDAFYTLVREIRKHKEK
Sequence of KRAS G13D (P62937 whole entry): as the sequence (P62937 whole entry) above
Outline: as §1

[1] = KRAS G12C, Ras-Raf disruption/FRET/MOA assay, read-out: IC50* KRAS G12C FRET data
[2] = NCI-H358, 5-day treatment, class symbols, read-out: Additional H358 Cell Viability assay data (K-Ras G12C, IC50)
[3] = KRAS G13C, Ras-Raf disruption/FRET/MOA assay, read-out: IC50* KRAS G13C FRET data

Sequence of K-Ras G12C (P01116-2 other isoform, or with tags, fused parts or gaps G12C): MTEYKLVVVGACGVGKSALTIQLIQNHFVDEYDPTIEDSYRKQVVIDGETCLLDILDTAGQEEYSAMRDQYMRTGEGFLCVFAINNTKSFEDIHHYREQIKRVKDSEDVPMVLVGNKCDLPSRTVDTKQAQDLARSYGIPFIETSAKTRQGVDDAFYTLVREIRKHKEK
Sequence of K-Ras G12C (P62937 whole entry): as the sequence (P62937 whole entry) above

C=CS(=O)(=O)N1CCC(C(=O)N(C)[C@H](C(=O)N[C@H]2Cc3nc(cs3)-c3ccc4c(c3)c(c(-c3cncnc3)n4CC)CC(C)(C)COC(=O)[C@@H]3CCCN(N3)C2=O)C(C)C)C1 (single isomer, unassigned) [Example A170]
IC50 (K-Ras G12C; [1]): 1 to 10 µM | IC50 (NRAS Q61R): > 10 µM | IC50 (NRAS WT): > 10 µM | IC50 (NCI-H358 (K-Ras G12C); [2]): 0.1 to 1 µM | IC50 (KRAS WT): > 10 µM | IC50 (KRAS Q61H): > 10 µM | IC50 (KRAS G12S): > 10 µM | IC50 (NRAS G12C): 1 to 10 µM | IC50 (KRAS G12D): > 10 µM | IC50 (K-Ras G13C; [3]): 1 to 10 µM | IC50 (NRAS Q61K): > 10 µM | IC50 (KRAS G13D): > 10 µM

C=CS(=O)(=O)N1CCC(C(=O)N(C)[C@H](C(=O)N[C@H]2Cc3cccc(c3)-c3ccc4c(c3)c(c(-c3cncnc3)n4CC)CC(C)(C)COC(=O)[C@@H]3CCCN(N3)C2=O)C(C)C)C1 (single isomer, unassigned) [Example A171]
IC50 (K-Ras G12C; [1]): 1 to 10 µM | IC50 (NRAS Q61R): > 10 µM | IC50 (NRAS WT): > 10 µM | IC50 (NCI-H358 (K-Ras G12C); [2]): 0.1 to 1 µM | IC50 (KRAS WT): > 10 µM | IC50 (KRAS Q61H): > 10 µM | IC50 (KRAS G12S): > 10 µM | IC50 (NRAS G12C): 1 to 10 µM | IC50 (KRAS G12D): > 10 µM | IC50 (K-Ras G13C; [3]): 1 to 10 µM | IC50 (NRAS Q61K): > 10 µM | IC50 (KRAS G13D): > 10 µM

C=CC(=O)N1CC[C@H](C(=O)N(C)[C@H](C(=O)N[C@H]2Cc3cc(ccn3)-c3ccc4c(c3)c(c(-c3cccnc3COC)n4CC)CC(C)(C)COC(=O)[C@@H]3CCCN(N3)C2=O)C(C)C)C1 [Example A136]
IC50 (K-Ras G12C; [1]): 1 to 10 µM | IC50 (NRAS Q61R): > 10 µM | IC50 (NRAS WT): > 10 µM | IC50 (NCI-H358 (K-Ras G12C); [2]): > 1 µM | IC50 (KRAS WT): > 10 µM | IC50 (KRAS Q61H): 1 to 10 µM | IC50 (KRAS G12S): > 10 µM | IC50 (NRAS G12C): 1 to 10 µM | IC50 (KRAS G12D): > 10 µM | IC50 (K-Ras G13C; [3]): > 10 µM | IC50 (NRAS Q61K): > 10 µM | IC50 (KRAS G13D): > 10 µM

C=CC(=O)N1CC[C@H](C(=O)N(C)[C@H](C(=O)N[C@H]2Cc3cc(O)cc(c3)-c3ccc4c(c3)c(c(-c3cncs3)n4CC)CC(C)(C)COC(=O)[C@@H]3CCCN(N3)C2=O)C(C)C)C1 [Example A143]
IC50 (K-Ras G12C; [1]): 0.1 to 1 µM | IC50 (NRAS Q61R): > 10 µM | IC50 (NRAS WT): > 10 µM | IC50 (NCI-H358 (K-Ras G12C); [2]): 0.01 to 0.1 µM | IC50 (KRAS WT): > 10 µM | IC50 (KRAS Q61H): 1 to 10 µM | IC50 (KRAS G12S): 1 to 10 µM | IC50 (NRAS G12C): 0.1 to 1 µM | IC50 (KRAS G12D): > 10 µM | IC50 (K-Ras G13C; [3]): > 10 µM | IC50 (NRAS Q61K): 1 to 10 µM | IC50 (KRAS G13D): > 10 µM

C=CC(=O)N1CC[C@H](C(=O)N(C)[C@H](C(=O)N[C@H]2Cc3cc(O)cc(c3)-c3ccc4c(c3)c(c(-c3cccc(=O)n3C(C)C)n4CC)CC(C)(C)COC(=O)[C@@H]3CCCN(N3)C2=O)C(C)C)C1 [Example A151]
IC50 (K-Ras G12C; [1]): 0.1 to 1 µM | IC50 (NRAS Q61R): > 10 µM | IC50 (NRAS WT): 1 to 10 µM | IC50 (NCI-H358 (K-Ras G12C); [2]): 0.1 to 1 µM | IC50 (KRAS WT): > 10 µM | IC50 (KRAS Q61H): 1 to 10 µM | IC50 (KRAS G12S): 1 to 10 µM | IC50 (NRAS G12C): 0.1 to 1 µM | IC50 (KRAS G12D): > 10 µM | IC50 (K-Ras G13C; [3]): > 10 µM | IC50 (NRAS Q61K): 1 to 10 µM | IC50 (KRAS G13D): > 10 µM

C=CC(=O)N1CC[C@H](C(=O)N(C)[C@H](C(=O)N[C@H]2Cc3cc(O)cc(c3)-c3ccc4c(c3)c(c(-c3cccnc3)n4[C@H](C)C#N)CC(C)(C)COC(=O)[C@@H]3CCCN(N3)C2=O)C(C)C)C1 [Example A193]
IC50 (K-Ras G12C; [1]): 0.01 to 0.1 µM | IC50 (K-Ras G12C; with Cyclophilin A, BRAF RBD, read-out: FRET (K-Ras G12C) IC50): 0.295 µM | IC50 (NRAS Q61R): 1 to 10 µM | IC50 (NRAS WT): 1 to 10 µM | IC50 (NCI-H358 (K-Ras G12C); read-out: H358 Cell Viability (K-Ras G12C) IC50, uM, NCI-H358, 5-day treatment): 0.054 µM | IC50 (KRAS WT): 1 to 10 µM | IC50 (KRAS Q61H): 0.1 to 1 µM | IC50 (KRAS G12S): 0.1 to 1 µM | IC50 (NRAS G12C): 0.1 to 1 µM | IC50 (KRAS G12D): > 10 µM | IC50 (K-Ras G13C; [3]): 1 to 10 µM | IC50 (K-Ras G13C; with Cyclophilin A, BRAF RBD, read-out: FRET (K-Ras G13C) IC50): 10.2 µM | IC50 (NRAS Q61K): 1 to 10 µM | IC50 (KRAS G13D): 1 to 10 µM

C=CC(=O)N1CC[C@H](C(=O)N(C)[C@H](C(=O)N[C@H]2Cc3cc(O)cc(c3)-c3ccc4c(c3)c(c(-c3c(C)cccc3C)n4CC)CC(C)(C)COC(=O)[C@@H]3CCCN(N3)C2=O)C(C)C)C1 [Example A226]
IC50 (K-Ras G12C; [1]): 0.1 to 1 µM | IC50 (NRAS Q61R): > 10 µM | IC50 (NRAS WT): > 10 µM | IC50 (NCI-H358 (K-Ras G12C); [2]): 0.1 to 1 µM | IC50 (KRAS WT): > 10 µM | IC50 (KRAS Q61H): 1 to 10 µM | IC50 (KRAS G12S): 1 to 10 µM | IC50 (NRAS G12C): 0.1 to 1 µM | IC50 (KRAS G12D): > 10 µM | IC50 (K-Ras G13C; [3]): > 10 µM | IC50 (NRAS Q61K): > 10 µM | IC50 (KRAS G13D): > 10 µM
